How the values were obtained:
Plasmopara viticola = experiment: Test A: grape downy mildew, curative spray on inoculated grape seedlings, visual disease rating; assay type: in vivo, Plasmopara viticola (on grape seedlings); conditions: 40 ppm, rating 100 = 100% disease control, 0 = no disease control relative to the controls
Phytophthora infestans [1] = assay type: in vivo, Phytophthora infestans (on tomato seedlings); conditions: 40 ppm; tomato late blight, preventive; rating 100 = 100% disease control, 0 = no disease control relative to the controls
Phytophthora infestans [2] = assay type: in vivo, Phytophthora infestans (on tomato seedlings); conditions: 40 ppm; tomato late blight, curative (17 h after inoculation); rating 100 = 100% disease control, 0 = no disease control relative to the controls

Structure (SMILES)	Test A rating (disease control) (Plasmopara viticola)	Test B1 rating (disease control) (Phytophthora infestans [1])	Test B2 rating (disease control) (Phytophthora infestans [2])
Cc1cc(C(F)(F)F)nn1CC(=O)N1CCC(c2nc3c(s2)CCC(Cc2c(F)cccc2F)C3=O)CC1 (single isomer, unassigned) [Compound 5, 5-[(2,6-difluorophenyl)methyl]-6,7-dihydro-2-[1-[2-[5-methyl-3-(trifluoromethyl)-1H-pyrazol-1-yl]acetyl]-4-piperidinyl]-4(5H)-benzonthiazolone]	99	100	99
Cc1cc(C(F)(F)F)nn1CC(=O)N1CCC(c2nc3c(s2)CCC(Cc2c(F)cccc2F)C3=O)CC1 (single isomer, unassigned) [Compound 6, 5-[(2,6-difluorophenyl)methyl]-6,7-dihydro-2-[1-[2-[5-methyl-3-(trifluoromethylene)-1H-pyrazol-1-yl]acetyl]-4-piperidinyl]-4(5H)-benzothiazolone]	78	100	78
Cc1cc(C(F)(F)F)nn1CC(=O)N1CCC(c2nc3c(s2)CCN(Cc2ccccc2)C3=O)CC1 [Compound 8, 6,7-dihydro-2-[1-[2-[5-methyl-3-(trifluoromethyl)-1H-pyrazol-1-yl]acetyl]-4-piperidinyl]-5-(phenylmethyl)thiazolo[4,5-c]pyridin-4(5H)-one]	100	100	99

— patent US20150336985A1, “FUNGICIDAL HETEROCYCLIC COMPOUNDS” (E. I. DU PONT DE NEMOURS AND COMPANY, priority 2012, published 2015)
